Assay [1] concerns PMNCs. Particulars: for % <Decrease (viable cells): decrease vs control; for Viable cells: controls 118 and 106; for % >Increase (viable cells): increase vs control. On the procedure:
Uninfected PMNCs, drug-treated PMNCs, and drug-treated and virus-infected PMNCs in different experiments were tested for drug toxicity and for the alterations in the numbers of viable cells in response to drug treatment by trypan blue exclusion method.
To understand the mechanism of virus enhancement and to evaluate the toxicity of the sulphated sugars to PMNCs in culture, cell viability counts were performed on trypan blue-stained cells.

For assay [2], the system named is HIV-1. Put plainly: HIV-1 replication in PHA-stimulated PMNC cultures, RT method on culture supernatants. Particulars: for Virus-enhancement effect: low drug concentrations; for Increase in virus production: concentrations of 1.0 μg ml^-1 or less.
Procedure: Phytohaemagglutinin stimulated human peripheral blood mononuclear cells (PHA-PMNCs) were exposed to A-CDS and PPS and infected with HIV-1 as follows. PMNCs stimulated with 10.0 μg ml^-1 of PHA were further propagated in Medium B (RPMI-1640 medium with 10% fetal calf serum, 10% T-cell growth factor, and 1:500 goat antibody to human Interferon) at 10^8 cells ml^-1 in 20 ml and were exposed to different concentrations of drugs and simultaneously infected with 10000 c.p.m. ml^-1 of HIV-1 in 20 ml/culture flask. Cultures were tested for the quantity of cell-free virus in the culture supernatants using the RT method. RT activity in the disrupted virions was tested by using exogenous template poly (rA).(dT)12-18 as described (Anand et al., (1988), supra. The reaction mixture consisted of 50mM Tris-hydrochloride (pH 7.5), 5mM dithiothreitol 100mM KCI, 10mM MgClhd 2, 10 μM [^3 H]-TTP, Triton X-100 containing poly (rA).(dT)12-18 at 30 μg ml^-1 (mcg ml^-1). The reaction mixture was incubated at 37° C. for 2 hours, and [^3 H]-TTP incorporated into polymers was precipitated with 10% trichloroacetic acid, collected on a glass fibre filter, and counted in an LKB 1219 Rackbeta scintillation counter. Various cultures in the experiment are represented: .quadrature.-.quadrature., A-CDS; .smallcircle.-.smallcircle., PPS; .smallcircle.-.smallcircle., B-CDS. The values are means of two determinations tested in two separate experiments. The range of variation was no greater than 15%.
After two days, PMNCs were infected and studied for the change in virus replication in the presence of drugs and for the direct effect of drugs on cell multiplication.
PMNCs stimulated with PHA were further propagated in Medium B(RPMI-1640 with 10% fetal calf serum. 10% T-cell growth factor and 1:500 diluted goat antibody to human interferon). […] In general, four hours after injection and drug treatment, cultures were centrifuged to remove the extracellular virus and the cells were resuspended in fresh Medium B and replenished with appropriate drug concentrations. The percent change in virus replication was calculated as (x-c)/c×100, where x represented the experimental value and c represented the control value.
Reduction in RT activity was a reflection of the inhibition of virus production and therefore virus replication. The virus was prepared from the drug-treated and untreated culture supernatants.
Cultures were infected with virus and treated with the drugs simultaneously and were tested to evaluate the amount of virus production by the reverse transcriptase (RT) method.
Assay [3] deals with PMNCs. Put plainly: Cell proliferation (cell count) with hydrocortisone phosphate and α-cyclodextrin sulfate. The class given is cell-based, human. The text has this: Anti-HIV Effects of Sulphated Sugars in Presence of Glucocorticoids. HIV infections are at some later stages invariably complicated by pathologies which involve neovascularization, particularly those associated with Kaposi's sarcoma. Previously, Folkman et al., Science 243, 1490-1493, 1989, observed that B-CDS stimulates this particular pathology, but that this side-effect can be suppressed by glucocorticoids. […] Thus, pathological neovascularization can be avoided without comprising the anti-HIV effects.

Assay [4] has as its target T1, reverse transcriptase enzyme of detergent-disrupted LAV-1BRU isolate (Human immunodeficiency virus type 1 (BRU ISOLATE), UniProt P03367).
T1 construct: poly(rA).oligo(dT) template
Kind of assay: Direct effect on reverse transcriptase enzyme activity of detergent-disrupted virus. The settings on record: for Inhibition of RT enzyme activity: concentrations tested up to 25.0 μg ml^-1; for RT activity: control 180; for % >Increase (RT activity): increase vs control; for % <Decrease (RT activity): decrease vs control. The class given is biochemical. The text has this:
Microb. Agents Chemother. 32:684-688 (1988).
The direct effect of A-CDS, B-CDS and PPS on the reverse transcriptase enzyme activity by treating a detergent-disrupted LAV-1BRU isolate with these drugs and subjecting it to the RT method was examined.

The test system of assay [5] is HIV-1 p24 antigen. Put plainly: p24 antigen ELISA in supernatant-free lysed cells. The class given is cell-based. The settings on record: supernatant-free lysed cells after exposure. The text has this:
Intracellular changes in the amount of HIV-1 following exposure to PPS were studied by measuring p24 antigen in the supernatant-free lysed cells.
A general note: An ELISA detects its analyte on a solid surface through an enzyme-linked reagent.

Where [6] appears, read: hydrocortisone phosphate 5 μg/ml alone.
The mark [7] stands for this setting: α-cyclodextrin sulfate 2.5 μg/ml alone.
The mark [8] stands for this setting: α-cyclodextrin sulfate 5.0 μg/ml alone.
[9] abbreviates: α-cyclodextrin sulfate 10.0 μg/ml alone.

Values joined by “and” are separate entries in the source; they are usually repeats but may differ in a detail not shown here. Equal entries are not always repeated. Where two headings read alike, the source gives them in different places.

Consider `Cc1cn([C@H]2C[C@H](N=[N+]=[N-])[C@@H](CO)O2)c(=O)[nH]c1=O` [AZT, 3'-azido-2',3'-dideoxythy-midine], for which, in assay [1] (10nM), the “% <Decrease (viable cells)” value is recorded as 35%. For the same compound, the Viable cells in assay [1] is 72 10^4 ml^-1. In addition, the “Replication (fold decrease)” value in assay [2] (AZT 10 nM alone) came to 1.2 fold decrease. In assay [2] (AZT 10 nM alone, control 164), this compound came in with an RT activity of 134 c.p.m. × 10^3 ml^-1.

Regarding `C[C@]12CCC(=O)C=C1CC[C@@H]1[C@@H]2[C@@H](O)C[C@@]2(C)[C@H]1CC[C@]2(O)C(=O)COP(=O)(O)O` [hydrocortisone phosphate], the “Cell Count in million per mL” value in assay [3] (setting [6]) is 1.2 million per mL and 1.0 million per mL. Besides, the “Inhibition of HIV-1 reverse transcriptase activity (%)” value in assay [2] (setting [6]) is 39% and 20%.

In the case of .varies.-cyclodextrin sulphate [A-CDS], the values for the Viable cells in assay [1] (conc. 0.1 μg ml^-1) and in assay [1] (conc. 0.5 μg ml^-1) were 140 10^4 ml^-1 and 128 10^4 ml^-1, respectively. For the same compound, the figures for the “% >Increase (viable cells)” value in assay [1] (conc. 0.1 μg ml^-1) and in assay [1] (conc. 0.5 μg ml^-1) were 25% and 14%, respectively. The “Cell Count in million per mL” value is listed as 1.2 million per mL in assay [3] (setting [7]), 1.3 million per mL in assay [3] (setting [8]) and 1.5 million per mL in assay [3] (setting [9]). The “Inhibition of RT enzyme activity” value in assay [4] is listed as “No inhibition”. In assay [2], the “Inhibition of HIV-1 replication in PMNC cultures” value (shortened to “Inhibition of HIV-1 replication”) is reported as “potent inhibitors”. Moreover, the “Replication (fold decrease)” value is listed as 2.8 fold decrease in assay [2] (A-CDS 0.5 μg ml^-1 alone) and 4.9 fold decrease in assay [2] (A-CDS 1.5 μg ml^-1 alone). In addition, the RT activity amounted to 57 c.p.m. × 10^3 ml^-1 in assay [2] (A-CDS 0.5 μg ml^-1 alone, control 164) and 33 c.p.m. × 10^3 ml^-1 in assay [2] (A-CDS 1.5 μg ml^-1 alone, control 164). For the same compound, in assay [2] (PMNC cultures, infected and treated simultaneously), the “Relative anti-HIV potency from the dose-response relationship” value is “more potent in anti-HIV action than PPS, B-CDS and DS”. For the same compound, the “Virus-enhancement effect” value in assay [2] is listed as “lacks the virus-enhancement effect”. Moreover, the “Inhibition of HIV-1 reverse transcriptase activity (%)” value in assay [2] (α-cyclodextrin sulfate 0.5 μg/ml alone) stood at 77%; in assay [2] (α-cyclodextrin sulfate 1.0 μg/ml alone), 72%; in assay [2] (setting [7]), 80%; in assay [2] (setting [8]) it was 83%; in assay [2] (setting [9]), 91%.

In the case of Pentosan polysulfate [PPS], in assay [5], the “HIV-specific p24 in the cells” value is “decrease in HIV-specific p24 in the cells”. Besides, the Viable cells in assay [1] (conc. 0.1 μg ml^-1) is listed as 268 10^4 ml^-1; in assay [1] (conc. 0.5 μg ml^-1), 202 10^4 ml^-1. The “% >Increase (viable cells)” value in assay [1] (conc. 0.1 μg ml^-1) came out at 141%. For the same compound, the “% <Decrease (viable cells)” value in assay [1] (conc. 0.5 μg ml^-1) came out at 80%. Also, in assay [1] (particularly at low drug concentrations), the “Lymphoproliferative effect, increase in cell numbers relative to control cultures” value was “more lymphoproliferative activity than B-CDS and A-CDS”. In addition, the “Protective effect on infected cells from HIV-associated cytopathic effect” value in assay [1] (virus-infected PMNCs, relative to virus-infected drug-free cultures) is “more than A-CDS and B-CDS”. The “Enhancement of the RT reaction” value in assay [4] (0.1 and 0.5 μg ml^-1) is “enhancement of the reaction”. The RT activity in assay [4] (drug conc. 0.1 μg ml^-1) was determined as 194 c.p.m. × 10^3 ml^-1; in assay [4] (drug conc. 0.5 μg ml^-1), 219 c.p.m. × 10^3 ml^-1; in assay [4] (drug conc. 2.0 μg ml^-1), 163 c.p.m. × 10^3 ml^-1; in assay [4] (drug conc. 4.0 μg ml^-1), 22 c.p.m. × 10^3 ml^-1; in assay [4] (drug conc. 5.0 μg ml^-1), 17 c.p.m. × 10^3 ml^-1; in assay [4] (drug conc. 6.0 μg ml^-1), 17 c.p.m. × 10^3 ml^-1. Besides, the RT activity in assay [4] (drug conc. 8.0 μg ml^-1) turned out to be 9 c.p.m. × 10^3 ml^-1; in assay [4] (drug conc. 10.0 μg ml^-1), 7 c.p.m. × 10^3 ml^-1; in assay [4] (drug conc. 15.0 μg ml^-1), 4 c.p.m. × 10^3 ml^-1; in assay [4] (drug conc. 20.0 μg ml^-1) it was 2 c.p.m. × 10^3 ml^-1; in assay [4] (drug conc. 25.0 μg ml^-1) it was 1 c.p.m. × 10^3 ml^-1; in assay [2] (PPS 2.0 μg ml^-1 alone, control 187), 43 c.p.m. × 10^3 ml^-1. For the same compound, the “% >Increase (RT activity)” value is on record as 7.7% in assay [4] (drug conc. 0.1 μg ml^-1) and 21.6% in assay [4] (drug conc. 0.5 μg ml^-1). The “% <Decrease (RT activity)” value in assay [4] (drug conc. 2.0 μg ml^-1) was 9.4%; in assay [4] (drug conc. 4.0 μg ml^-1, 120 min), 87% and 87.7%; in assay [4] (drug conc. 6.0 μg ml^-1, 120 min), 90.5%; in assay [4] (drug conc. 8.0 μg ml^-1, 120 min) it was 95.0%; in assay [4] (drug conc. 10.0 μg ml^-1, 120 min), 97.7%; in assay [4] (drug conc. 15.0 μg ml^-1, 120 min), 97.7%. Further, the “% <Decrease (RT activity)” value is 99.8% in assay [4] (drug conc. 20.0 μg ml^-1, 120 min) and 99.4% in assay [4] (drug conc. 25.0 μg ml^-1, 120 min). Also, the “Inhibition of HIV-1 replication” value in assay [2] is recorded as “potent inhibitors”. Further, the “Replication <% decrease” value in assay [2] (PPS 2.0 μg ml^-1 alone) is 77.0%. The “Increase in virus production” value in assay [2] was “up to a three-fold increase in virus production”. Also, in assay [2], the “Virus-enhancement effect” value is on record as “virus-enhancement effect”.

Regarding dextran sulphate [DS], in assay [1] (conc. 0.1 μg ml^-1), the Viable cells is on record as 170 10^4 ml^-1 and the “% <Decrease (viable cells)” value is recorded as 51%. Further, in assay [1] (conc. 0.5 μg ml^-1), the Viable cells is recorded as 90 10^4 ml^-1 and the “% >Increase (viable cells)” value turned out to be 19%. In addition, the “Virus-enhancement effect” value in assay [2] is reported as “virus-enhancement effect”.

Turning to β-cyclodextrin sulphate [B-CDS], in assay [1] (conc. 0.1 μg ml^-1), the Viable cells is reported as 188 10^4 ml^-1 and the “% >Increase (viable cells)” value came out at 67%. For the same compound, in assay [1] (conc. 0.5 μg ml^-1), the Viable cells was 140 10^4 ml^-1 and the “% >Increase (viable cells)” value is reported as 25%. Besides, in assay [4], the “Inhibition of RT enzyme activity” value is given as “No inhibition”. Also, in assay [2], the “Inhibition of HIV-1 replication” value was “potent inhibitors”, the “Increase in virus production” value is listed as “up to a three-fold increase in virus production” and the “Virus-enhancement effect” value is recorded as “virus-enhancement effect”. Also, the “Replication <% decrease” value in assay [2] (B-CDS 2.5 μg ml^-1 alone) is 40.1%. In addition, the RT activity in assay [2] (B-CDS 2.5 μg ml^-1 alone, control 187) is 112 c.p.m. × 10^3 ml^-1.
